Test results: patent US20220323614A1, “KRAS-SPECIFIC CYCLIC PEPTIDES, COMPOSITIONS, AND METHODS OF USING AND MAKING” (Indi Molecular, Inc., priority 2021, published 2022)
Read-outs that look alike come from different tables or passages of the source. Where a SMILES comes first, the peptide text is derived from it. Bridges are numbered along the chain shown (N, C = ends). Triazole bridges read from a SMILES are 1,4-linked. Where no end group is shown, it is not given here. [ ]: non-standard residue; d: D form. The star is where a group is joined. Phe(4-guanidino) = N=C(N)Nc1ccc(C[C@H](N)C(=O)O)cc1; dLys(N3) = [N-]=[N+]=NCCCC[C@@H](N)C(=O)O; dPhe(4-Cl) = N[C@H](Cc1ccc(Cl)cc1)C(=O)O; Lys(N3) = [N-]=[N+]=NCCCC[C@H](N)C(=O)O; Morpholinoacetyl = O=C(CN1CCOCC1)*; Palmitoyl = CCCCCCCCCCCCCCCC(=O)*; dPra = C#CC[C@@H](N)C(=O)O; Pra = C#CC[C@H](N)C(=O)O

What was measured:
KRAS (G12D) = molecular target: T1, KRAS (G12D) (Homo sapiens, UniProt P01116, G12D); test: Western blot of KRAS (G12D) levels in pancreatic cell lysate; type: cell-based; conditions: pancreatic cancer cells incubated with the peptide
T1 construct: decreasing or depleting levels of KRAS (G12D) in pancreatic cancer cells; endogenous in cells
Source text: The disclosed cyclic peptides can be used, for example, in methods for inhibiting the KRAS (G12D) oncoprotein. Such methods can include treating cancer cells having the KRAS (G12D) mutation. […] In some forms, a cyclic peptide of Formula I can be used to inhibit KRAS (G12D) expressed in any cancer cell. For example, the KRAS (G12D) oncoprotein has been identified in pancreatic, colorectal, lung, biliary tract, and ovarian cancer cells.

[1] = system: AsPC-1 (G12D) and BxPC-3 (WT); test: spheroid proliferation assay using CellTiter-Glo Assay; type: cell-based
Description: FIGS. 2A-2B are graphs of spheroid proliferation assay of AsPC-1 (G12D) and BxPC-3 (WT) using CellTiter-Glo Assay. […] The ligand assayed was Ac-wkyf-Lys(Pal) (SEQ ID NO:46). BxPC-3 and AxPC-1 were cultured as spheroids to compare the cell viability to that observed under adherent conditions. […] These conditions more closely parallel the tumor microenvironment.

pERK in AsPC-1 cells = test: pERK levels in AsPC-1 cells, Western blot normalized to tubulin (pERK_G12D); type: cell-based; conditions: FIG. 3, incubated for 12 hours
Description: FIG. 3 is a graph of pERK levels measured in BxPC-3 cells (first eight bars) and AsPC-1 cells (last eight bars) in the presence of different ligands or controls. For each cell type, the graph bars are, from left to right: cell only, DMSO 1.25%, BI-2852, KRpep-2d, NH2-wkyf (SEQ ID NO:46), Ac-wkyf (SEQ ID NO:46), Pal-wkyf (SEQ ID NO:46), Ac-wkyf-Lys(Pal) (SEQ ID NO:46). The levels of pERK are normalized to tubulin. The cells were grown overnight, treated with the ligands, incubated for 12 hours, lysed, gel electrophoresed, and Western blotted. Phosphorylation of ERK is a KRAS-dependent signaling target. […] BI-2852 and Krpep-2d are two positive controls developed by Boehringer Ingelheim and Takeda.
FIG. 5 is a graph of pERK inhibition in BxPC-3 cells (first eight bars) and AsPC-1 cells (last eight bars) in the presence of the substituted ligands of FIG. 3. For each cell type, the graph bars are, from left to right: DMSO 0.5%, KRpep-2d, Ac-wkyf-Lys(Pal) (SEQ ID NO:46), Ac-w(Dab)yf-Lys(Pal), Ac-wk(4-Br-f)f-Lys(Pal), Ac-wky(4-Br-f)-Lys(Pal), Ac-wky(2-Nal)-Lys(Pal), wkyf (SEQ ID NO:46).
Tables 15A-15E provide a summary of the activity and effects of various of the disclosed wkyf-based cyclic peptides. […] MTT_G12D used AsPc-1 at 5 μM. MTT_WT used BxPC-3 at 5 μM. pERK_G12D used AsPC-1 at 4 μM for 12 hours. pERK_WT used BxPC-3 at 4 μM for 12 hours.

[2] = system: AsPC1 (G12D mutant) cell line, BxPC3 (wild type), and SW 1990 (G12D mutant); conditions: confocal microscopy, Streptavidin-phycoerythrin (PE) visualization
Description: A biotinylated KRAS(G12D) targeted cyclic peptide and an equivalent agent with membrane targeting capability were tested for membrane association using confocal microscopy. Binding to AsPC1 (G12D mutant) cell line, BxPC3 (wild type), and SW 1990 (G12D mutant) were compared.

[3] = mouse pharmacokinetics of Indi-199 by IV, IP and PO; type: in vivo; conditions: for half-life: read-out: T½ (converted)
Source text: FIG. 14 is a graph of mouse pharmacokinetics of Indi-199, an example of the disclosed cyclic peptides, by different administration routes (IV, IP, and PO).

[4] = tolerability of Indi-199 in PBS; type: in vivo, mouse; conditions: simple formulation (PBS)
[5] = in vivo, mouse, 20 mg/kg IP, 4 mg/mL in PBS
[6] = in vivo, mouse, 20 mg/kg IV bolus, 4 mg/mL in PBS
[7] = in vivo, mouse, 50 mg/kg PO, 5 mg/mL in PBS

With “QNGnfY (QN[Phe(4-guanidino)]Y; also: cyclic, closure not given here, D-amino acids, places not given here)” the “levels of KRAS (G12D)” value (KRAS (G12D)) was “capable of decreasing or depleting levels of KRAS (G12D)”.

In the case of `CCCCCCCCCCCCCCCC(=O)NCCCC[C@@H](NC(=O)[C@H]1CCCCn2cc(nn2)C[C@@H](NC(C)=O)C(=O)N[C@@H](Cc2c[nH]c3ccccc23)C(=O)N[C@@H](CCCCN)C(=O)N[C@@H](Cc2ccc(O)cc2)C(=O)N[C@@H](Cc2ccccc2)C(=O)N1)C(N)=O` [Ac-wkyf-Lys(Pal)] (Ac-[dPra]WKYF[dLys(N3)][dK](Palmitoyl)-NH2; triazole 1-6), the “selectivity under spheroid culturing” value ([1]; FIG. 2B, spheroid vs adherent culture, AsPC-1 (G12D) vs BxPC-3 (WT)) is reported as “selectivity persist under spheroid culturing”, the “reduction of cell viability, spheroid compared to adherent conditions” value ([1]; FIGS. 2A-2B, CellTiter-Glo) is reported as “more effective at reducing cell viability” and the pERK inhibitory effect (pERK in AsPC-1 cells) is reported as “most inhibitory effects”.

With Biotin-wky(4-Cl-F)-Lys(Pal) the membrane association [2] was “demonstrated membrane association”.

Compound `CCCCCCCCCCCCCCCC(=O)NCCCC[C@H](NC(=O)[C@@H]1CCCCn2cc(nn2)C[C@H](NC(=O)CN2CCOCC2)C(=O)N[C@H](Cc2c[nH]c3ccccc23)C(=O)N[C@H](CCCCN)C(=O)N[C@H](Cc2ccc(O)cc2)C(=O)N[C@H](Cc2ccc(Cl)cc2)C(=O)N1)C(N)=O` [Indi-199] (Morpholinoacetyl-[Pra][dW][dK][dY][dPhe(4-Cl)][Lys(N3)]K(Palmitoyl)-NH2; triazole 1-6) has an AUC(0-inf) [3, 5] of 316 µM·h, an AUC(0-t) [3, 5] of 213 µM·h and a Cmax [3, 5] of 12 µM. It also gave a Tmax [3, 5] of 6 h, a half-life ([3]; in vivo, mouse, 20 mg/kg IP, 4 mg/mL in PBS, terminal elimination phase inadequately defined) of 13.4 h and an AUC(0-inf) [3, 6] of 403 µM·h. It also gave an AUC(0-t) [3, 6] of 402 µM·h, a Cmax [3, 6] of 252 µM and a Tmax [3, 6] of 0 h. The clearance [3, 6] was 0.587 mL/min/kg, the half-life [3, 6] was 2.72 h and the Vd ([3]; in vivo, mouse, 20 mg/kg IV bolus, 4 mg/mL in PBS, read-out: Vdss) was 0.0976 L/kg. For the same compound, the AUC(0-t) [3, 7] was 0.182 µM·h, the Cmax [3, 7] was 0.033 µM and the Tmax [3, 7] was 4 h. The bioavailability [3, 7] was 0.018%, the exposure ([3]; iv and ip administration, FIG. 14) was “sustained exposure” and the tolerability [4] was “well tolerated”.
